# In US20240317792A1, “CYCLIC DINUCLEOTIDE METAL COMPOUND, AND PREPARATION AND APPLICATION THEREOF” (HANGZHOU XINGAO BIOTECHNOLOGY CO., LTD., priority 2022, published 2024):
# Key:
# IRI mice (male SD mice) = assay: Cerebral ischemia-reperfusion injury (IRI) model, TTC dyeing; type: in vivo; details: 2 h ischemia, 24 h reperfusion; caudal vein injection 5 mg/kg (Edaravone 6 mg/kg) after 30 min ischemia
# Method: Experimental animals: healthy male mice, weighing 280-300 grams, purchased from Shanghai SLAC Laboratory Animal Co. Ltd, with quality certificate No. (SCXK (Shanghai) 2007-0005), and kept in clean animal houses.
# Establishment of a mouse cerebral ischemia model of mice and experimental method: 280-300 grams of male […] mice were selected for experiments. The male SD mice were subjected to fasting without water deprivation for 12 h before operation followed by weighing, numbering and random grouping. The male SD mice were anesthetized by intraperitoneal injection of 10 wt. % chloral hydrate at a dosage of 0.3 mL/100 g. After the male SD mice had no pain reflexes, they were subjected to neck skin preparation followed by being fixed on a dissecting table in supine position. After neck skins were disinfected with sterilized cotton balls, about 1 cm of the neck skins were cut in mid-cervical to expose subcutaneous tissues, and subcutaneous fat and the fascia were bluntly plucked with curved tweezers to expose neck muscle groups. The common carotid arteries and their upwardly internal and external carotid branches were visualized by opening the digastric muscle. The external, internal, and common carotid arteries were carefully dissected, and a thin wire was threaded under each of the three arteries, and homemade plastic spacers were placed under the common carotid arteries. The external carotid arteries and proximal ends of the common carotid arteries were ligated. After the internal common carotid arteries were clamped by arterial clips, the common carotid arteries were stuck into with homemade curved hooks followed by picking up and leading in monofilaments. The spacers were removed, and the monofilaments were gently pushed into the internal common carotid arteries and craniums. […] At this time, blood supplies of the middle cerebral arteries from the anterior cerebral arteries were blocked. Thin wires under the internal carotid arteries were ligated to secure the monofilaments to prevent the monofilaments from retreating. Excess thin wires were cut, penicillin was applied to wounds to prevent infection. The male SD mice were sutured and placed under a warm lamp to keep warm. Timing was performed when blood flows of the middle cerebral arteries were blocked by the monofilaments. After 2 hours, the monofilaments were gently pulled out and the black marks were seen, then reperfusion can be achieved.
# Triphenyl tetrazolium chloride (TTC) dyeing: After being injured by 2 h cerebral ischemia and 24 h reperfusion, the male SD mice were anesthetized with 0.3 mL/100 g dosage of 10 wt. % of chloral hydrate by intraperitoneal injection and subjected to abdominal aorta bleeding to reduce influence of blood in brains. Then whole heads of the male SD mice were removed immediately after decapitating, and washed with normal saline followed by being promptly put into a −20° C. refrigerator to freeze for 20 min. Frozen brains were collected and subjected to coronal sections, each 2 mm of thickness, by a blade. Then the coronal sections were subjected to dark dyeing in a 2 wt. % of TTC solution for 20 min and fixing in a 4 wt. % of polyformaldehyde solution for 6 h followed by photographing. Then, Photoshop software was used to define area and calculate, and a formula was represented as a percentage of cerebral ischemic area=a total area of white area/a total area of ischemic hemisphere×100%.
# Drug preparation and experimental grouping: Edaravone was used as a positive control drug, and an Edaravone injection was 30 mg/20 mL. A single dosage for each of the male SD mice was 0.4 mL/100 g, that is, 6 mg/kg. The cyclic dinucleotide metal compounds prepared in Examples 1-5 were prepared into […] injection drugs with the normal saline. Each of the male SD mice was subjected to caudal vein injection with 0.4 mL/100 g dosage of drugs, that is, 5 mg/kg. The male SD mice were divided into 8 groups (10 mice in each group). […]
# [1] = system: mouse colorectal cancer cell line CT26
# Method: Experimental animals: BALB/c ordinary mice, male, weighing 20-22 grams, 7-8 weeks old, at SPF level, purchased from Shanghai SLAC Laboratory Animal Co. Ltd.
# Tumour cell line herein was the mouse colorectal cancer cell line CT26 purchased from Chinese Academy of Sciences Cell Bank.
# Establishment and intervention of tumor model mice: cells were subjected to culture and subculture, collected in the logarithmic phase and prepared as 1.0×10^7/mL of cell suspension. 0.2 mL of the cell suspension was injected armpits of forelegs of the mice (with a cell number of 2.0×10^6), and tumor transplantation was successful in about 7 days. The mice were randomly divided into 5 groups (10 mice in each group). […] The mice were subjected to administration by intraperitoneal injection with the volume of 200 μL per mice once every 2 days for 20 days. After 20 days, the mice were weighed and their blood was collected. Then the mice were killed, and the tumor were weighed. The formula of inhibitory rate of tumor was represented as inhibitory rate of tumor=[1-average tumor weight of experimental group/average tumor weight of the negative control group]×100%.
# [2] = oxaliplatin 5 mg/kg alone or + 10 mg/kg compound, intraperitoneal once every 2 days, 20 days
# [3] = peripheral blood after 20 days administration
# [4] = serum after 20 days administration
SMILES,Average value of percentage of cerebral ischemic area (IRI mice (male SD mice)) [%],"Inhibitory rate (of tumor) ([1]; CT26, oxaliplatin 5 mg/kg alone or + 10 mg/kg compound, 20 days) [%]","Survival rate [1, 2] [%]","Weight loss [1, 2] [%]","Hemoglobin [1, 3] [g/L]","Platelets [1, 3]","Red blood cells [1, 3]","White blood cells [1, 3]","ALT [1, 4] [U/L]","Creatinine [1, 4] [µmol/L]"
"CC1=NN(c2ccccc2)C(=O)C1 [Edaravone, reference compound]",28.97,,,,,,,,,
O=C1[O][Pt]2([NH][C@@H]3CCCC[C@H]3[NH]2)[O]C1=O [oxaliplatin],,78,50,40,88 ± 9,368 ± 56 × 10^3/μL,4.51 ± 0.65 × 10^6/μL,3.87 ± 0.08 × 10^3/μL,118.25 ± 7.84,80.33 ± 4.65
